As usually defined, the melting point is the temperature, or range, at which the solid turns liquid. In turn, `O=C(N[C@H]1CC[C@H](CCN2CCN(c3nccc4c3CCO4)CC2)CC1)c1ccc(F)cc1` came in with a melting point of 210 °C.
The figure for `O=C(NCc1cocn1)c1cc(-n2cnn(Cc3ccc(F)cc3)c2=O)n[nH]1` is 267 to 268 °C.
The figure for `Cc1cc(OC(C)c2sc(-c3ccc(C(F)(F)F)cc3F)nc2C)ccc1OC(C)(C)C(=O)O` (stereo not given) is 133 °C.
In the case of `CCOc1cccc(-c2nc3ccc(C(=O)O)cc3c(=O)[nH]2)c1OCC`, the melting point is greater than 320 °C.
The figure for `COc1cc(CO)c([N+](=O)[O-])cc1OCCCCCCOC(C)=O` is greater than 220 °C; for `CCOc1c(OC)ccc2nc3[nH]cnc(=O)c3cc12` it is 348 to 349 °C; for `O=C(O)c1ccccc1Nc1c(O)ccc2ccccc12` it is 214 to 217 °C.
The figure for `CCOC(=O)c1c(C#N)c2c(c3[nH]c4ccccc4c13)CCC2` is 229 to 231 °C; for `CSC(C#N)c1cccc(C(=O)c2ccc(Cl)cc2)c1N` (stereo not given) it is 122 °C.
The figure for `c1ccc(Nc2ncnc3ncccc23)cc1` is 258 °C; for `CC1(C)CCc2c(N3CCOCC3)nc3sc4c(NCCCN5CCCC5=O)ncnc4c3c21` it is 142 to 143 °C.
For the compound `COC(=O)C1=C(C)NC(C)=C(C(=O)OCCN2CCN(c3cccc(Cl)c3)CC2)C1c1cccc([N+](=O)[O-])c1` (stereo not given), the melting point is 65 to 68 °C.
The result for `CCCN1CCC[C@@H]2c3cccc(O)c3OC[C@H]21` (relative stereo) reads 111 to 114 °C; that for `NC(=O)CCc1ccc(CNC(=O)[C@@H](CCCNC(N)=N[N+](=O)[O-])NC(=O)C(c2ccccc2)c2ccccc2)cc1`, 139 to 140 °C.
The figure for `COc1ccc(-c2cccc(OC3SCC(OC(C)=O)C(OC(C)=O)C3OC(C)=O)c2)cn1` (stereo not given) is 132 °C; for `CCN(CC)c1ccc2nc3c4ccc(Br)cc4c(=Nc4ccncc4)cc-3oc2c1` it is 269 to 271 °C; for `COc1ccc(CCNC(C)=O)cc1OC` it is 99 to 100 °C.
Regarding `O=C(Nc1cc(F)c(-c2cccnc2)c(F)c1)OCc1ccccc1`, the melting point lay in the range of 188 to 190 °C.
The figure for `CC(=O)NCCN1CCCc2ccc(C)cc21` is 99 °C.
The figure for `O=C(N[C@@H](Cc1ccc(C(F)(F)F)cc1)[C@H](O)c1ccc(F)cc1)c1ccc(C(F)F)c2ccccc12` is 212 to 213 °C; for `CNS(=O)(=O)c1ccc(Oc2ccc(N)cc2)cc1` it is 121 to 122 °C.
In the case of `CC(C)CCCOc1c(-c2ccc(S(C)(=O)=O)cc2)cnn(-c2ccc(F)cc2)c1=O`, the melting point was in the range of 123 to 125 °C.
The result for `Cc1[nH]c(=O)c(C#N)cc1-c1ccccc1OCC(C)C(=O)O` (stereo not given) reads 228 to 230 °C; that for `O=C(O)c1n[nH]c2ncccc12`, 175 to 176 °C.
The figure for `O=C(Cc1ccc(C(F)(F)F)cc1)c1ccc(F)cc1` is 93 to 95 °C.
As for `C=Cc1ccc(CSCCO)cc1`, the melting point lay within 44 to 45.5 °C.
The figure for `Cc1cc(CCCCCS(=O)c2ccc(C3=NCCO3)cc2)on1` (stereo not given) is 110 to 111 °C.
The result for `COC(=O)C(C)c1ccc2c(c1)C(=O)Cc1cccnc1S2` (stereo not given) reads 98 to 99.5 °C; that for `FC(F)(F)c1cccc(-c2ccnc3nccn23)c1`, 160 to 163 °C; that for `Cc1cccc2c1C(=O)C1(CC1)S2`, 128 °C.
The figure for `O=C(CCl)NC(=O)Nc1cc(C(F)(F)F)cc(C(F)(F)F)c1` is 170 °C; for `Cc1c(Cl)ccc2c(=O)n(CCCN3CC=C(c4ccc(Cl)cc4)CC3)c(=O)[nH]c12` it is 208 to 210 °C.
Consider `CCCCC1OC(=O)c2cc(NC=O)ccc21` (stereo not given), for which the melting point was 127 to 129 °C.
The figure for `Fc1cccc(Nc2nc(Cl)nc(NC3CCCCCC3)n2)c1` is 148 °C; for `CC(C)(C)OC(=O)NCCCn1nnnc1S` it is 75 to 77 °C.
The result for `Nc1nc(O)c2cc(CCc3ccc(C(=O)O)cc3)cnc2n1` reads greater than 300 °C; that for `COc1nc(C)nc(NC(=O)NS(=O)(=O)c2cccnc2OCC2CC2)n1`, 165 to 167 °C.
The result for `CCCCn1nc(Cc2ccc(-c3ccccc3-c3nnn[nH]3)cc2)c(C(=O)O)c1CC` reads 191 to 192 °C.
Compound `CC(C)C(NC(=O)c1ccc(C(=O)NC(CCC(=O)O)C(=O)O)cc1)C(=O)N1CCCC1C(=O)NC(C(=O)C(F)(F)F)C(C)C` (mixture of isomers) came in with a melting point of 74 to 76 °C.
`COc1ccc(NC(=O)c2ccc(C3(C#N)CCCC3)cc2)cc1` gave a melting point of 163 to 168 °C.
In the case of `CC1(C)[C@@H]2CC3[C@H](C(=O)O)[C@@]3(C)C[C@@H]21` (stereo not given in full), the melting point worked out at 86 °C.
The figure for `COc1ccc(Cl)cc1C1C(=O)Nc2cc(C(F)(F)F)ccc21` (stereo not given) is 210 to 213 °C; for `COc1cccc2[nH]c3c(c12)C(=O)N=NC3=O` it is greater than 260 °C.
The result for `O=C(O)CSCCCCCNS(=O)(=O)c1ccc(Cl)cc1` reads 93 to 94 °C; that for `Cc1cccc(-c2nc(O)c(C)s2)c1Cl`, 183 to 184 °C; that for `OCCN1CCN(c2cc(Cl)nc(-c3ccccc3)n2)CC1`, 103 to 105 °C.
The figure for `CC1(C)C2CC1C(=O)CC2=O` is 80 to 81 °C.
Regarding `O=C(Nc1ccc(C2CCCCC2)cc1)c1ncccc1O`, the melting point fell in the range of 91 to 93 °C.
The figure for `CCC(C)CC(C)NC1=NS(=O)(=O)c2cc(Cl)ccc2N1` (stereo not given) is greater than 220 °C; for `OC1CSC(=S)N1c1ccccn1` (stereo not given) it is 110 °C.
The figure for `O=c1cc(CNCc2ccccc2)c2ccc(OCc3cccc(Cl)c3)cc2o1` is 133 to 135 °C; for `CN1CCN(c2cc3c(cc2F)c(=O)c(C(=O)O)cn3CCF)CC1` it is 256 to 258 °C; for `COc1ccc(CCOc2cc(-c3cccc(C(=O)O)c3)ccn2)cc1OC` it is 148 to 149 °C.
In the case of `CC1=Nc2c(C)nn(C)c2C2=NC(C)CN12` (stereo not given), the melting point was 169 to 172 °C.
The figure for `CC(=O)OC1CCCc2cnc3ccccc3c21` (stereo not given) is 128 to 129 °C.
The figure for `Nc1cc(F)ccc1Nc1ccccc1` is 83 to 84 °C.
The figure for `O=CC=Cc1cnn(-c2c(Cl)cc(C(F)(F)F)cc2Cl)n1` is 68 to 69 °C.
For `CCC(O)P(=O)(OCc1ccccc1)OCc1ccccc1` (stereo not given), the melting point lay in the range of 81 to 82 °C.
The result for `CC(C)(C)c1cccc(S(=O)(=O)n2c(Cc3ccc(C(=O)O)cc3)cc3cc(C(F)(F)F)ccc32)c1` reads 128 °C.
The result for `CS(=O)(=O)Nc1cc(C(=O)c2ccccc2)ccc1N` reads 184 to 186 °C; that for `Cc1c(CNCC(C)(C)O)[nH]c2c(C)c(NC(=O)c3ccc(OC[C@@H]4CCCO4)cc3F)ccc12`, 151 to 152 °C; that for `C=Cc1ccnc2c([N+](=O)[O-])cccc12`, 134 °C.
The result for `N#CC1CC2CC2N1C(=O)C(N)C12CC3CC(CC(O)(C3)C1)C2` (stereo not given) reads 105 to 108 °C; that for `N#Cc1c(N)sc(C=O)c1Sc1ccccc1`, 230 °C; that for `CCOC(=O)CC(=O)N1C(C(=O)OC(C)(C)C)CCCN1C(=O)OCc1ccccc1` (stereo not given), 45 to 47 °C.
`Fc1ccc2c(c1)nc(/C=C/c1ccoc1)n2-c1ccccn1` came in with a melting point of 168 to 170 °C.
As to `O=C1NC(=O)c2c1c(-c1ccccc1Cl)cc1c2c2cc(O)c(OCCCN3CCOCC3)cc2n1CCO`, the melting point was 253 to 255 °C.
The compound `O=c1c2c(Cc3cccc(C(F)(F)F)c3)n[nH]c2c2cccnc2n1-c1cccc(OC(F)(F)F)c1` came in with a melting point of 206 to 209 °C.
The result for `O=C1CSC(=S)N1N=c1sc2ccccc2s1` reads 295 to 300 °C.
Consider `CC(C)C(=O)NC(c1ccc(Br)cc1)C(F)(F)F` (stereo not given), for which the melting point lay in the range of 176 to 178 °C.
Compound `CCC(=O)OC1(C)CCCC2C3C=CC(C3)C21` (stereo not given) registered a melting point of 30 °C.
The result for `O=C(O)C#Cc1ccccn1` reads 130 °C; that for `CCN(CC)CCNC(=O)c1cnc(-c2ccccc2)nc1Cl`, 40 to 45 °C.
The result for `O=C1Nc2cccnc2N(C(=O)N2CCCCC2CCCCN2CCCCC2)c2ccccc21` (stereo not given) reads 199 to 201 °C; that for `O=S1(=O)N(CCCl)c2cccc3c2N1CCC3`, 70 °C; that for `O=[N+]([O-])C=C(NCCCOc1cccc(CN2CCCCC2)c1)NCC(O)c1ccc(F)cc1` (stereo not given), 135 to 136 °C.
The result for `CC(C)c1ccc2oc(C(O)COc3ccc(CO)cc3)cc2c1` (stereo not given) reads 98 to 100 °C.
Compound `O=C(O)c1cnc2n1CCc1ccccc1C2=C1CCN(CCc2ccc(OCc3ccc4ccccc4n3)cc2)CC1` had a melting point of 174 °C.
The figure for `CCOC(=O)c1cnc2nc(C(=O)O)c(OCC)cc2c1O` is 270 to 272 °C.
The result for `COc1ccc(CSc2nnc(CCl)s2)cc1` reads 60.5 to 63.5 °C; that for `CCOC(=O)c1cn(Cc2ccccc2OC)c2sc(-c3ccc(OC)cc3)c(CBr)c2c1=O`, 200 to 201 °C; that for `Cc1noc2cc3c(cc12)C1(CO3)C(=O)N(Cc2ncccc2F)c2ccccc21` (stereo not given), 167 to 169 °C.
In turn, `CCCc1nn(CC)c2c(=O)[nH]c(C)nc12` came in with a melting point of 211 to 213 °C.
The figure for `CN1CCCC(CC(C#N)(Cn2cncn2)c2ccc(Cl)cc2Cl)C1` (stereo not given) is 125 to 126 °C; for `CC(=O)Oc1ccc(-c2ccc(CO)cc2S(=O)CC[Si](C)(C)C)cc1C` (stereo not given) it is 132 to 134 °C; for `Nc1ncc2c(n1)CCC(NC(=O)[C@@H]1CCCN1C(=O)[C@@H](Cc1ccccc1)NS(=O)(=O)Cc1ccccc1)C2` (stereo not given in full) it is 117 to 120 °C.
`N#Cc1cccc(NCC(=O)N2CCC(Cc3ccc(F)cc3)CC2)c1` returned a melting point of 138 to 142 °C.
The result for `COC1(OC)CCC(O)(c2ccc(F)cc2)CC1` reads 94 to 99 °C; that for `CCc1cc(Nc2ccc(Sc3ccncc3)cc2)nc(N)n1`, 181 to 186 °C.
Consider `COc1ccc(S(=O)(=O)N2C(=O)C(c3ccccc3OC)(N3c4ccccc4C[C@H]3C(=O)N(C)C)c3cc(Cl)ccc32)c(OC)c1` (stereo not given in full), for which the melting point was determined as 167 °C.
